What follows are molecules tested against T1, hT1R2/T1R3 taste receptor (Homo sapiens, UniProt Q7RTX0+Q8TE23) (assay: agonist activity against the hT1R2/T1R3 taste receptor (sweet receptor based assay)). Details: not given.
T1 sequence (Q8TE23 20-839): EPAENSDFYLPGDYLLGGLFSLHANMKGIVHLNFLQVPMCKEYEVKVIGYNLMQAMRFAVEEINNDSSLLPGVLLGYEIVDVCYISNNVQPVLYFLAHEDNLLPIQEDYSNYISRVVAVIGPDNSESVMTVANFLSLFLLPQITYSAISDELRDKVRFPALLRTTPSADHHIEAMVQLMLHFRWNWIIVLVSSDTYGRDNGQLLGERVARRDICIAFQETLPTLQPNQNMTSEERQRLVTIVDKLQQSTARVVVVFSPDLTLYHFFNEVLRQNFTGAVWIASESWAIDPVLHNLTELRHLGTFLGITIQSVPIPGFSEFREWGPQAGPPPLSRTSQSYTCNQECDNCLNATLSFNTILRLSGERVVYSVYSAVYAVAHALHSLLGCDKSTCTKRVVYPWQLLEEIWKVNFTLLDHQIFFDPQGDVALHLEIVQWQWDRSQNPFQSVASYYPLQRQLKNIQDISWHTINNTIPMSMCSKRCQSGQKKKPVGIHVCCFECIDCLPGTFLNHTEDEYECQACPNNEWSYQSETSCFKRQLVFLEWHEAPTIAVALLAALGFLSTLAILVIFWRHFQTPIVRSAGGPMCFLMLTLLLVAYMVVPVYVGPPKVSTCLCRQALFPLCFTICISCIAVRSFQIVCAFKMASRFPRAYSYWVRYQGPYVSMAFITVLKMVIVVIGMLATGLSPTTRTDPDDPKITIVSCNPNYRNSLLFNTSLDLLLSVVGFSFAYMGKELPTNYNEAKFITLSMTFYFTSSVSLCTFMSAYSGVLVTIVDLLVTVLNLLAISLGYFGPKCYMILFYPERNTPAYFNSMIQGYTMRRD
T1 sequence (Q7RTX0 21-852): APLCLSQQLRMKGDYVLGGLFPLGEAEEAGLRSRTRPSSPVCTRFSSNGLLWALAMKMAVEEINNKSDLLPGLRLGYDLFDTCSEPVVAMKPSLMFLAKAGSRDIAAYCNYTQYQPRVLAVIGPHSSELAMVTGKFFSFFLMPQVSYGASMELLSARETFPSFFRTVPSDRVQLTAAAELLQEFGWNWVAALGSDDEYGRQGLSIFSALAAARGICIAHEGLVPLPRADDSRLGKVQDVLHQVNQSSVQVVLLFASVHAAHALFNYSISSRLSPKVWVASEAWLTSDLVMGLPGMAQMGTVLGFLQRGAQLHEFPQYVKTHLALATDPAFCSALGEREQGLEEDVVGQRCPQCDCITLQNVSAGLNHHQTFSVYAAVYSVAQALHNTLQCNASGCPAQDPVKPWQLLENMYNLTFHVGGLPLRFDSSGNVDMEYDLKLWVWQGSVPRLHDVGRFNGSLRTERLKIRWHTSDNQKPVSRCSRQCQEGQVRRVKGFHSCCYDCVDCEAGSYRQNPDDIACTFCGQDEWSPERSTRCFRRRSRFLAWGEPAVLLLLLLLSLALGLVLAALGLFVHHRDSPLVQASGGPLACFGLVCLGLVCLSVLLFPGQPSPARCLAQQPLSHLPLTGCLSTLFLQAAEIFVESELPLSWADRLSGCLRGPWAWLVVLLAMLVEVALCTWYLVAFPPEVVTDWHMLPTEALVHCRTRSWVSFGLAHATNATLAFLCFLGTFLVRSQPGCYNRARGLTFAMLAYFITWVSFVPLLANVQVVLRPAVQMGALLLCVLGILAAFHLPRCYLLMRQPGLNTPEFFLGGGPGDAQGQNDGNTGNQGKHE
Type: cell-based
Method: Compounds described in this application show moderate to potent agonist effect on the sweet receptor based assay. Potencies (EC50 values, e.g. see Tables 1-3) for agonist activity were measured against the hT1R2/T1R3 taste receptor. FIG. 1 exemplifies the data generated during the screening to determine EC50 values.
Work on CC(C)(C)NC(=O)C(C)(C)N1CCC(C#N)(c2cccc(F)c2F)CC1 [Compound 126] yielded an EC50 of 2 µM. CC(C)(C(=O)NC1CC1)N1CCC(C#N)(c2cccc(F)c2F)CC1 [Compound 128] was tested, and the EC50 was 1.7 µM.

Same assay, conditions: agonist activity, hT1R2/T1R3; read-out: Sweet EC50
CC(C)CNC(=O)C(C)(C)N1CCC(c2ccccc2F)CC1 [Compound 91] gave an EC50 of 0.4 µM. With COCc1cccc(C2=CCN(C(C)(C)C(=O)NCC(C)C)CC2)c1 [Compound 63] the EC50 was > 10 µM. With CC(C)CNC(=O)C(C)(C)N1CCN(c2ccccc2C(F)(F)F)CC1 [Compound 50] the EC50 was > 10 µM. With CC(C)CNC(=O)C(C)(C)N1CC=C(c2cccc(F)c2F)CC1 [Compound 59] the EC50 was 1.7 µM. Work on CCCNC(=O)C(C)(C)N1CCN(c2cccc(C)c2C)CC1 [Compound 9] yielded an EC50 of 4.2 µM. Cc1ccncc1C1CCN(C(C)(C)C(=O)NCC(C)C)CC1 [Compound 107] was tested, and the EC50 was > 10 µM. CC(C)CNC(=O)C(C)(C)N1CCN(c2cccc(F)c2F)CC1 [Compound 3, 2-(4-(2,3-difluorophenyl)piperazin-1-yl)-N-isobutyl-2-methylpropanamide] was tested, and the EC50 was 1.6 µM. For CC(C)CNC(=O)C(C)(C)N1CCN(c2c(F)cccc2F)CC1 [Compound 42], the EC50 was > 10 µM. With Cc1cccc(N2CCN(CC(=O)NC3CC3)CC2)c1C [Compound 31] the EC50 was > 10 µM. In the case of CCC(C)(C)NC(=O)C(C)(C)N1CCN(c2cccc(C)c2C)CC1 [Compound 19], the EC50 is reported as > 10 µM. CC(C)CNC(=O)C(C)(C)N1CCCC(c2ccccc2)CC1 (stereo not shown) [Compound 117] showed an EC50 of 10.9 µM. In the case of COCc1cccc(N2CCN(C(C)(C)C(=O)NCC(C)C)CC2)c1 [Compound 45], the EC50 is reported as > 10 µM. COCc1cccc(C2=CCN(C(COC)C(=O)NCC(C)C)CC2)c1F (stereo not shown) [Compound 55, 2-(4-(2-fluoro-3-(methoxymethyl)phenyl)-3,6-dihydropyridin-1(2H)-yl)-N-isobutyl-3-methoxypropanamide] showed an EC50 of 1.4 µM. For CC(C)CNC(=O)C(C)(C)N1CCC(C)(c2ccccc2)CC1 [Compound 118], the EC50 was 3.7 µM. With COCc1ccc(C2CCN(C(C)(C)C(=O)NCC(C)C)CC2)c(F)c1 [Compound 102] the EC50 was > 10 µM. CC(C)[C@@H](C)NC(=O)C(C)(C)N1CCC(c2ccccc2)CC1 [Compound 86] showed an EC50 of 4.4 µM. Cc1ccccc1C1=CCN(C(C)(C)C(=O)NCC(C)C)CC1 [Compound 58] was tested, and the EC50 was 5.4 µM. Cc1ccncc1C1=CCN(C(C)(C)C(=O)NCC(C)C)CC1 [Compound 75] was tested, and the EC50 was > 10 µM. Work on Cc1cccc(N2CCN(C(C)(C)C(=O)NCC(C)C)CC2)c1F [Compound 36] yielded an EC50 of 2.4 µM. In the case of COc1cccc(C2=CCN(C(C)(C)C(=O)NCC(C)C)CC2)c1F [Compound 68], the EC50 is reported as > 10 µM. CC(C)CNC(=O)C(C)(C)N1CCC(c2ccc(F)cc2)CC1 [Compound 97] showed an EC50 of 6.2 µM. With CC(C)CNC(=O)C(C)(C)N1CCC(c2cccc(CO)c2F)CC1 [Compound 99] the EC50 was 4.7 µM. With Cc1cccc(N2CCN(C(C)(C)C(=O)NC3CC3)CC2)c1C [Compound 1, N-cyclopropyl-2-(4-(2,3-dimethylphenyl)piperazin-1-yl)-2-methylpropanamide] the EC50 was 4.3 µM. Cc1cccc(N2CCN(C(C)C(=O)NC3CC3)CC2)c1C (stereo not shown) [Compound 32] was tested, and the EC50 was > 10 µM. With COc1cccc(C2CCN(C(C)(C)C(=O)NCC(C)C)CC2)c1F [Compound 100] the EC50 was 1.4 µM. Work on COCc1cccc(C2CCN(C(C)(C)C(=O)NCC(C)C)CC2)c1F [Compound 95] yielded an EC50 of 0.5 µM. COCc1cccc(C2CCN(C(C)(C)C(=O)NCC(C)C)CC2)c1 [Compound 111] gave an EC50 of 3.1 µM. For COCc1ccccc1C1CCN(C(C)(C)C(=O)NCC(C)C)CC1 [Compound 110], the EC50 was > 10 µM. In the case of CC(C)CNC(=O)C(C)(C)N1CCC(CO)(c2ccccc2)CC1 [Compound 119], the EC50 is reported as > 10 µM. For Cc1cccc(N2CCN(C(C)(C)C(=O)NCC3CCCCCC3)CC2)c1C [Compound 17], the EC50 was > 10 µM. Cc1ccc(C)c(N2CCN(C(C)(C)C(=O)NCC(C)C)CC2)c1 [Compound 38] was tested, and the EC50 was > 10 µM. For Cc1cccc(N2CCN(C(C)(C)C(=O)NCC3CCCCC3)CC2)c1C [Compound 16], the EC50 was > 10 µM. Cc1cccc(N2CCN(C(C)C(=O)NCC(C)C)CC2)c1C (stereo not shown) [Compound 11] showed an EC50 of 1.4 µM. Cc1cccc(C2CCN(C(C)(C)C(=O)NCC(C)C)CC2)c1F [Compound 98] showed an EC50 of 0.9 µM. For Cc1ccccc1N1CCN(C(C)(C)C(=O)NCC(C)C)CC1 [Compound 46], the EC50 was 4.3 µM. In the case of Cc1cccc(N2CCN(C(C)(C)C(=O)NCC(C)(C)O)CC2)c1C [Compound 25], the EC50 is reported as > 10 µM. For Cc1cccnc1N1CCN(C(C)(C)C(=O)NCC(C)C)CC1 [Compound 41], the EC50 was > 10 µM. CCCNC(=O)C(C)(C)N1CCC(c2ccccc2)CC1 [Compound 85] showed an EC50 of 5.5 µM. Molecule CC(C)CNC(=O)C(C)(C)N1CCC2(CC1)COc1ccccc12 [Compound 122] has an EC50 of 2.5 µM. For Cc1cccc(N2CCN(C(C)(C)C(=O)NCCN(C)C)CC2)c1C [Compound 23], the EC50 was > 10 µM. With CC(C)CNC(=O)C(C)(C)N1CCC(c2cccc(F)c2F)CC1 [Compound 94] the EC50 was 0.14 µM. In the case of Cc1cccc(C2=CCN(C(C)(C)C(=O)NCC(C)C)CC2)c1F [Compound 65], the EC50 is reported as 2.9 µM. In the case of Cc1cccc(N2CCN(C(C)(C)C(=O)NCC(C)(C)C)CC2)c1C [Compound 18], the EC50 is reported as > 10 µM. Cc1cccc(N2CCN(C(C)(C)C(=O)NCCC(C)C)CC2)c1C [Compound 26] showed an EC50 of 8 µM. Cc1cccc(N2CCN(C(C)(C)C(=O)NCC3CC3)CC2)c1C [Compound 14] showed an EC50 of 5 µM. With CC(C)CNC(=O)C(C)(C)N1CC=C(c2cncc(C#N)c2)CC1 [Compound 70] the EC50 was > 10 µM. CC(C)CNC(=O)C1(N2CCC(c3ccccc3)CC2)COC1 [Compound 112] was tested, and the EC50 was 4.8 µM. CC(C)(C(=O)NC1CCCC1)N1CCC(c2ccccc2)CC1 [Compound 84] gave an EC50 of 2.5 µM. COC(=O)c1c(F)cccc1N1CCN(C(C)(C)C(=O)NCC(C)C)CC1 [Compound 7, Methyl 2-fluoro-6-(4-(1-(isobutylamino)-2-methyl-1-oxopropan-2-yl)piperazin-1-yl)benzoate] gave an EC50 of 11.5 µM. Cc1cccc(C2=CCN(C(C)(C)C(=O)NCC(C)C)CC2)n1 [Compound 77] was tested, and the EC50 was > 10 µM. Cc1cccc(N2CCN(C(C)(C)C(=O)NCCc3ccccc3)CC2)c1C [Compound 27] was tested, and the EC50 was > 10 µM. For CC(C)CNC(=O)C(C)(C)N1CCC(O)(c2ccccc2)CC1 [Compound 123], the EC50 was > 10 µM. In the case of CC(C)CNC(=O)C(C)(C)N1CC=C(c2ccccc2C(=O)N(C)C)CC1 [Compound 73], the EC50 is reported as > 10 µM. For CC(C)CNC(=O)C(C)N1CCC(c2ccccc2)CC1 (stereo not shown) [Compound 90], the EC50 was 4.7 µM. With Cc1cccc(N2CCN(C(C)(C)C(=O)NCC(C)C)CC2)c1 [Compound 43] the EC50 was > 10 µM. CC(C)CNC(=O)C(C)(C)N1CCC(c2cccc(C(=O)N(C)C)c2)CC1 [Compound 106] was tested, and the EC50 was > 10 µM. Work on Cc1cccc(N2CCN(C(C)(C)C(=O)NCC(C)C)CC2)c1C [Compound 10] yielded an EC50 of 2.8 µM. With CC(C)CNC(=O)C(C)(C)N1CC=C(c2ccccc2)CC1 [Compound 56] the EC50 was 3.3 µM. With CC(C)(C)CNC(=O)C(C)(C)N1CCC(c2ccccc2)CC1 [Compound 88] the EC50 was 4.2 µM. For CC(C)CNC(=O)C(C)(C)N1CC=C(c2ccccc2F)CC1 [Compound 57], the EC50 was 1.6 µM. With CC(C)CNC(=O)C(C)(C)N1CCN(c2cnccn2)CC1 [Compound 54] the EC50 was > 10 µM. CC(C)CNC(=O)C(C)(C)N1CC=C(c2cccc(F)c2)CC1 [Compound 62] gave an EC50 of 3 µM.

Reference: patent publication US20250280861A1, “SWEETENER COMPOSITIONS” (Firmenich Incorporated, priority 2022, published 2025)
